Tested on: renal fibrosis induced by renal ischemia-reperfusion injury
Format: in vivo, C57BL/6J mice
Settings: compared to PBS group
Description: Animal experiments were performed with the approval of the Animal Experimental Ethics Committee, Yeungnam University College of Medicine (YUMC-AEC2018-024). C57BL/6J 8-week-old male mice were anesthetized by intraperitoneal injection of 2.5% Avertin (0.025 ml/g body weight). The mouse was placed on a hot plate at 37° C., and the left flank was incised to expose the left kidney. The renal arteriovenous blood vessels were ligated with a microaneurism clamp (Roboz), and whether the blood vessels were blocked or not was confirmed by the color of the kidneys. During the induction of ischemia, the body temperature of the mice was maintained at 36.5-37.5° C. After 35 minutes, the clamp was removed and it was confirmed that reperfusion occurred.
As a control, renal arteriovenous vessels were not ligated, and the rest was performed in the same manner as above. From 4 days after ischemia-reperfusion injury, 2.5 μl of 10 mM salinomycin was diluted in 100 μl of phosphate buffer solution at intervals of 2 days and injected into the abdominal cavity 3 times (Sal group). […] Three mice were used for each group.
The left kidney in which ischemia-reperfusion injury was induced, was excised in half and fixed in 10% formalin solution or stored frozen in liquid nitrogen.
In order to evaluate kidney function due to ischemia-reperfusion injury, creatinine and blood urea nitrogen (BUN) concentrations in plasma and urine were measured.
Blood was collected from the retro-orbital vascular plexus of the mouse using a heparin capillary tube, and plasma was separated. Plasma creatinine was measured by QuantiChrom™ creatinine assay kit (DICT-500; BioAssay Systems, Hayward, CA, USA), and BUN was investigated by measuring absorbance at 490 nm and 450 nm by a spectrophotometer, respectively by BUN colorimetric detection kit (Arbor Assays, Ann Arbor, Michigan, USA). […]
RIPA buffer was added to the tissue and pulverized with WiseTis homogenizer HG-15D (DAIHAN Scientific, Seoul, South Korea). Centrifugation was performed at 12,000 rpm at 4° C. for 20 minutes, and the supernatant was transferred to a new tube. The protein concentration of the supernatant was quantified by the BCA method.
After electrophoresis (SDS-PAGE) of 30 μg of protein, Western blot analysis was performed. After electrophoresis, the protein was transferred from the gel to a polyvinylidene fluoride membrane (Pall Corporation). The membrane was treated with a 5% Difco™ skim milk solution (Becton, Dickinson and Company, USA) for 2 hours at room temperature, and the primary antibody was added, followed by reaction at room temperature for 2 hours.
As the primary antibody, anti-p53 antibody, anti-p16 antibody, anti-actin antibody and anti-GAPDH antibody were purchased from Santa Cruz Biotechnology, Inc. Anti-phosphorylated-Rb antibody was obtained from New England Biolabs (Ipswich, MA, USA), and the anti-SOD2 antibody and anti-catalase antibody were obtained from Bioworld Technology Inc. (Louis Park, MN, USA), anti-HNE antibody, anti-α-smooth muscle actin antibody, and anti-type I collagen antibody were purchased from Abcam (Cambridge, UK).
The tissue fixed in 10% formalin solution was embedded with paraffin and cut into 4 μm to prepare a tissue sample. After removing paraffin from the tissue sample, hematoxylin-eosin staining, trichrome staining, and PAS staining were performed.
The degree of fibrosis was measured by analyzing the degree of collagen staining using the i-Solution™ software program (IMT Inc., Canada) after trichrome staining and the degree of cell senescence in tissue samples was investigated by staining lipofuscin with Sudan black B (Viegas M S, et al., European journal of histochemistry: EJH. 2007). The degree of peritoneal fibrosis was confirmed by measuring the submesothelial thickness of the peritoneal mesothelial cell layer using the NIH Image J program. […]

[1] = kidney tissue, antioxidant enzyme
[2] = kidney tissue, fibrosis marker, FIG. 7L, 7M

CC[C@@H](C(=O)[C@@H](C)[C@@H](O)[C@H](C)[C@@H]1O[C@@H]([C@@H](CC)C(=O)O)CC[C@@H]1C)[C@H]1O[C@]2(C=C[C@@H](O)[C@]3(CC[C@@](C)([C@H]4CC[C@](O)(CC)[C@H](C)O4)O3)O2)[C@H](C)C[C@@H]1C [salinomycin]
plasma creatinine (i.p. 3 times at 2-day intervals from day 4, FIG. 7C): decreased
plasma BUN (i.p. 3 times at 2-day intervals from day 4, FIG. 7D): decreased
expression of SOD2 (Western blot) [1]: increased
expression of catalase (Western blot) [1]: increased
expression of pRb (Western blot) (kidney tissue, cell proliferation marker, FIG. 7L, 7M): decreased
expression of p16 (Western blot) (kidney tissue, cellular aging marker, FIG. 7K): marked decrease
expression of p53 (Western blot) (kidney tissue, cellular aging marker, FIG. 7L, 7M): decreased
Sudan Black B (lipofuscin) staining intensity (kidney tissue, cellular senescence, FIG. 7G): decreased
expression of type 1 collagen (COL1) (Western blot) [2]: decreased
expression of α-SMA (Western blot) [2]: decreased
expression of 4-HNE (Western blot) (kidney tissue, oxidative stress marker, FIG. 7K): marked decrease
lipid peroxides in tissue (kidney tissue, FIG. 7H): significantly reduced
MDA in tissue (kidney tissue, FIG. 7I): significantly reduced
superoxides in tissue (kidney tissue, FIG. 7J): decreased
degree of tissue fibrosis by trichrome staining (kidney, FIG. 7E, 7F): significantly reduced
damage to the renal tubules (renal tissue specimen, FIG. 7E, 7F): significantly reduced
